Reference: patent US20240158426A1, “TRANSITION METAL COMPLEX CONTAINING TETRADENTATE NITROGEN DONOR LIGAND AND ELECTROCHEMICAL BIOSENSOR COMPRISING SAME” (I-sens, Inc., priority 2020, published 2024)

Experiment: Cyclic voltammetry (CV) of TPMA-based osmium complexes
Details: Cl^− counter ion form; Ag/AgCl reference electrode; scanning rate 10 mV/s
Method: In order to analyze electrochemical properties of the synthesized TPMA-based osmium complexes, cyclic voltammetry (CV) was used. A well-washed carbon glass electrode with a diameter of 3 mm was used as a working electrode, and an Ag/AgCl electrode was used as a reference electrode, and a Pt electrode was used as a counter electrode to measure it at a scanning rate of 10 mV/s. […] In order to find out only the position of the redox peak, the complex in a Cl^− counter ion form was measured in condition that the concentration of each substance was not constant, by measuring the Cl^− substance in a solution state during the anion exchange process. […] The change in the oxidation/reduction potential according to the type of the substituent and coordinated ligand was analyzed centering on the present complex.

With [Os(TPMA)Cl2]^+(PF6^−) [Complex 18] the “oxidation/reduction potential E1/2” value was −0.339 V.
